Where a name gives a salt, the structure may show the parent alone. Read-outs that look alike come from different tables or passages of the source.
Key:
[1] = test system: arteriovenous bypass thrombi; test: Antithrombotic activity in vivo: arteriovenous bypass thrombosis in rats; parameters: species or system SD rats; settings: single gavage 15 mg/kg; for inhibition at 15 mg/kg: Rattus norvegicus, po, vs blank control; for Thrombus wet weight: 1 h after administration, blood flow 15 min; for Thrombus wet weight / Thrombus dry weight: x±s, n=8; for Thrombus dry weight: thread dried at 70°C
Procedure: 104 SD rats (purchased from Weitong Lihua Experimental Animal Technology Co., Ltd., certificate number: 20211103Aazz0619000910), male, weighing 180-220 g, were randomly divided into 13 groups according to body weight after 7 days of adaptive feeding, with 8 rats in each group, namely, normal control group, compound A group, compound A methyl ester group, and Example 1-10 compound groups respectively. Each group was given corresponding drugs by gavage (dosage was 15 mg/kg), and the normal control group was given an equal volume of solvent, all of which were given by single gavage. One hour after the last administration, the rats were anesthetized with 3% chloral hydrate intraperitoneally, and the right common carotid artery and left external jugular vein were isolated in a supine position. A polyethylene tube was taken with an inner diameter of 1.5 mm and a length of 10 cm, a 6 cm long silk thread (preweighed) was inserted into it, and the polyethylene tube was filled with normal saline solution of heparin (50 U/ml). One end of the polyethylene tube was inserted into the left external jugular vein, heparin (50 U/kg) was injected, and the other end was inserted into the right common carotid artery. After blood flow was opened for 15 minutes, the blood flow was interrupted and the silk thread was quickly taken out and weighed. The total weight minus the original silk thread weight was the wet weight of the thrombus. The silk thread was placed in an oven for drying at 70°C. The dry weight of the thrombus was obtained by weighing the silk thread minus the original silk thread weight, and the inhibition rate was calculated. [formula] [formula]

[2] = Pharmacokinetics in vivo in rats after gavage; parameters: species or system SD male rats; settings: rat, p.o. 15 mg/kg (calculated as Compound A), mean value
Procedure: Eighteen SD male rats (purchased from Weitong Lihua Experimental Animal Technology Co., Ltd., certificate number: 20211103Aazz0619000910), weighing 240-280 g, were randomly divided into 6 groups, with 3 rats in each group. The animals were fasted overnight before administration. On the day of administration, the compounds of Examples 3, 4, 5, 6, Compound A, and Compound A methyl ester were gavaged to the animals in each groups respectively, and the dosage was 15 mg/kg (calculated as Compound A). Before administration and 0.25, 0.5, 1, 2, 4, 6, 8, and 24 h after administration, 0.15 mL of blood was collected from the animals through the jugular sinus and placed in an EDTA-K2 anticoagulant tube containing 3 µL of dichlorvos aqueous solution (10 mg/mL). After centrifugation, plasma was collected, and was placed in the sample, and then 10 µL of plasma sample was taken, 500 µL of acetonitrile containing IS (verapamil 5 ng·mL^-1, glibenclamide 50 ng·mL^-1, tolbutamide 200 ng·mL^-1, and diclofenac 200 ng·mL^-1) was added, vortexed for 10 min, and then centrifuged at 3700 rpm for 10 min, and then 70 µL of supernatant and 70 µL of water were added, and vortexed for 10 min. An aliquot of 2 µL of the mixture was injected into the LC-MS/MS system (Triple Quad 5500+: LC-MS-MS-022) to measure blood concentration of the compounds. […]

[3] = read-out: Inhibition rate (thrombus dry weight)
[4] = read-out: Inhibition rate (thrombus wet weight)

| Compound | inhibition at 15 mg/kg [1, 3] | inhibition at 15 mg/kg [1, 4] | Thrombus wet weight [1] | Thrombus dry weight [1] | MRTo-t [2] |
| --- | --- | --- | --- | --- | --- |
| COc1cc(C(=O)OCOC(=O)OC(C)C)ccc1OCCn1ccnc1 [Example 5, ((isopropoxycarbonyl)oxy)methyl-4-(2-(1H -imidazol-1-yl)ethoxy)-3-methoxybenzoate] | 55.9% | 53.5% | 47.0±8.7^★★**## mg | 15.0±4.5^★★*## mg |  |
| COc1cc(C(=O)OC(C)OC(C)=O)ccc1OCCn1ccnc1 (stereo not drawn) [Example 6, 1-acetoxyethyl-4-(2-(1H-imidazol-1-yl)ethoxy)-3-methoxybenzoate] | 58.1% | 55.4% | 45.1±8.6^★★**## mg | 14.3±5.0^★★**## mg |  |
| COc1cc(C(=O)Oc2ccc(C[C@H](N)C(=O)O)cc2)ccc1OCCn1ccnc1.Cl [Example 9, (S)-4-(4-(2-(1H-imidazol-1-yl)ethoxy)-3-methoxybenzoyloxy)phenylalanine hydrochloride] | 57.4% | 49.4% | 51.1±12.7^★★**## mg | 14.5±6.2^★★**## mg |  |
| COc1cc(C(=O)O)ccc1OCCn1ccnc1 [Compound A] |  |  |  |  | 5.4 h |
| COc1cc(C(=O)Oc2ccc(C[C@@H](N)C(=O)O)cc2)ccc1OCCn1ccnc1.Cl [Example 10, (R)-4-(4-(2-(1H-imidazol-1-yl)ethoxy)-3-methoxybenzoyloxy)phenylalanine hydrochloride] | 55.1% | 47.5% | 53.1±11.8^★★**## mg | 15.3±2.8^★★*## mg |  |
| COc1cc(C(=O)OCCCCCC(=O)O)ccc1OCCn1ccnc1 [Example 3, 6-(4-(2-(1H -imidazol-1-yl)ethoxy)-3-methoxybenzoyloxy)hexanoic acid] | 64% | 53.3% | 47.3±6.3^★★**## mg | 12.3±5.7^★★**## mg |  |
| COc1cc(C(=O)Nc2ccc(C[C@@H](N)C(=O)O)cc2)ccc1OCCn1ccnc1 [Example 8, (R)-3-(4-(4-(2-(1H-imidazol-1-yl)ethoxy)-3-methoxybenzamido)phenyl)-2-propionic acid hydrochloride] | 57% | 48.6% | 52.0±13.5^★★**## mg | 14.6±3.8^★★**## mg |  |
| CCCOC(=O)c1ccc(OCCn2ccnc2)c(OC)c1 [Example 1, propyl 4-(2-(1H-imidazol-1-yl)ethoxy)-3-methoxybenzoate] | 52.9% | 45.9% | 54.8±12.7^★★*## mg | 16.0±3.4^★★*## mg |  |
| COC(=O)c1ccc(OCCn2ccnc2)c(OC)c1 [Compound A methyl ester, reference compound] | 32.4% | 29.4% | 71.3±8.7^★★ mg | 23.0±8.2^★★ mg | 6.5 h |
| COc1cc(C(=O)OC(C)C)ccc1OCCn1ccnc1.Cl [Example 2, isopropyl 4-(2-(1H-imidazol-1-yl)ethoxy)-3-methoxybenzoate hydrochloride] | 54.8% | 48.3% | 52.3±10.5^★★**## mg | 15.4±5.0^★★*## mg |  |
| COc1cc(C(=O)Nc2ccc(C[C@H](N)C(=O)O)cc2)ccc1OCCn1ccnc1.Cl [Example 7, (S)-4-(4-(2-(1H-imidazol-1-yl)ethoxy)-3-methoxybenzamido)phenylalanine hydrochloride] | 52.6% | 46.2% | 54.4±9.8^★★*## mg | 16.1±3.3^★★*## mg |  |

Reference: patent EP4538258A1, “IMIDAZOLIDINYL VANILLIC ACID ETHER DERIVATIVE AND USE THEREOF” (Hefei Institute of Pharmaceutical Industry Co., Ltd., priority 2022, dated 2023)
